# Measurements from patent publication US10508086B2 (CANCER RESEARCH TECHNOLOGY LIMITED, priority 2014, dated 2019).
# Tests used:
# [1] = target: Human Full Length PARG (Homo sapiens (Human), UniProt Q86W56); experiment: PARG in vitro enzyme assay (TR-FRET); assay type: biochemical; conditions: read-out: PARG_EC50_ENZYME
# Method in brief: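 Full-length human PARG ([…]) incubated with ribosylated PARP substrate (4.5 nM) for 10 min at room temperature in Tris pH 7.4 buffer with EDTA, EGTA, DTT, KCl. Detection by TR-FRET using anti-6HIS XL665 (14 nM final) and streptavidin europium cryptate (0.75 nM final) after 60 min; Em665/Em620 ratio converted to percent inhibition.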
# [2] = target: Human Full Length ARH3 (Homo sapiens (Human), UniProt Q9NX46); experiment: ARH3 in vitro selectivity assay (TR-FRET); assay type: biochemical; conditions: read-out: ARH3 Biochem IC50
# Sequence of Human Full Length ARH3 (Q9NX46 whole entry): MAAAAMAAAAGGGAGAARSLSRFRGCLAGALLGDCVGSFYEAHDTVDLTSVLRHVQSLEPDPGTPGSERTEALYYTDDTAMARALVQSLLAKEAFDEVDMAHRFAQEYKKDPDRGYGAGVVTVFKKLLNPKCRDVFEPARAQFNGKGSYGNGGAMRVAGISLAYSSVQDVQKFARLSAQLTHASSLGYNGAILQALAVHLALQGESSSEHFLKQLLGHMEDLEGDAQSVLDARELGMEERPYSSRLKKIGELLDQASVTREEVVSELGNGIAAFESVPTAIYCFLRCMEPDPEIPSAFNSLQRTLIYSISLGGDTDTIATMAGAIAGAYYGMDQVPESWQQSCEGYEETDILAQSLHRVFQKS
# Protocol: ARH3 In vitro selectivity assays were conducted in a total volume of 15 ul in a standard 384 well format. 5 ul of Human Full Length ARH3 (Enzo Life Sciences: ALX-201-292), used at a final reaction concentration of 17.5 nM, was added to 5 ul of Ribosylated PARP substrate (also produced internally by Astra Zeneca) at final reaction concentration of 4.5 nM in assay buffer (50 mM Tris pH7.4, 0.1 mg/ml BSA, 3 mM EDTA, 0.4 mM EGTA, 1 mM DTT, 0.01% Tween 20, 50 mM KCl). The reaction was incubated at room temperature for 30 minutes and then 5 ul detection reagent was added. Detection Reagent consists of 42 nM MAb Anti-6HIS XL665 (CisBio: 61HISXLB) and 2.25 nM Streptavidin Europium Cryptate (CisBio: 610SAKLB), both at 3× working stock concentrations (final concentrations of 14 nM and 0.75 nM respectively), in a detection buffer of 50 mM Tris pH7.4, BSA at 0.1 mg/ml and KF at 100 mM. Following incubation at room temperature for 60 minutes in the dark, TR-FRET signal was measured at Ex 340 and Em 665 and Em 620. A ratio was calculated as Em665/EM620×104 for each well and used to calculate percent inhibition for test compounds.
# [3] = target: Human High specific Activity PARP1 (Homo sapiens (Human), UniProt P09874); experiment: PARP1 in vitro selectivity assay (histone PARylation, luminescence); assay type: biochemical; conditions: read-out: PARP1 Biochem IC50
# Sequence of Human High specific Activity PARP1 (P09874 whole entry): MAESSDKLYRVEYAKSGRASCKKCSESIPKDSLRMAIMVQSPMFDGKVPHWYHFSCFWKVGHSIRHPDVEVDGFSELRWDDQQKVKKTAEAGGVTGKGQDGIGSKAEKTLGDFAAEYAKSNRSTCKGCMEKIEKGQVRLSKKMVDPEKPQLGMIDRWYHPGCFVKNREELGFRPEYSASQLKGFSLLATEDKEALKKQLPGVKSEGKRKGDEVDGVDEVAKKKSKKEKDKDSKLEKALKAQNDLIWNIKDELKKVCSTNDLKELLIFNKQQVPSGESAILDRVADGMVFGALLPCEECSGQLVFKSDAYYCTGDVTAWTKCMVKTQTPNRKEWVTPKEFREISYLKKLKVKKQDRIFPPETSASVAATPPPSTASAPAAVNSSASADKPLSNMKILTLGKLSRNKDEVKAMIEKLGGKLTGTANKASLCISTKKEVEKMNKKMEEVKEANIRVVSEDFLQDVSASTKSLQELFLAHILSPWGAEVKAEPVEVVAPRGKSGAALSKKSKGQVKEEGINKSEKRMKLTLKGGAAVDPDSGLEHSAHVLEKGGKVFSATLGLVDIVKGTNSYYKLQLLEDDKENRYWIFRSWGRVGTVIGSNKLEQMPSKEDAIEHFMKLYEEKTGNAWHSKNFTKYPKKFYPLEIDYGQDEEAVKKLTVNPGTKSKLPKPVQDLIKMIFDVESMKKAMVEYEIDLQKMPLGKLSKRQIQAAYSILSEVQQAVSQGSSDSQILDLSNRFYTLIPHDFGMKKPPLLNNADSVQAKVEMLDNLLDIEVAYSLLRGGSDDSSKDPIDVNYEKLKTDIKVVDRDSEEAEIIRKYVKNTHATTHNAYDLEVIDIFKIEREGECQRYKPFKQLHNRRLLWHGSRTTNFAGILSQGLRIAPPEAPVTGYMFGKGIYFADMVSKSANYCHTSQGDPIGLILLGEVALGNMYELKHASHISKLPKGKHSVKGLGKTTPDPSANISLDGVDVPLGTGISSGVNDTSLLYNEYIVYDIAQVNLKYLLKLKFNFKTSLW
# Protocol: PARP1 In vitro selectivity assays were conducted as a 10 ul reaction volume in a NUNC Maxisorp 384-well assay plate pre-coated in-house with Histones. 5 ul of Human High specific Activity PARP1 (Trevigen: 4668-100-01) was used at a final reaction concentration of 0.02 units/ml in 1×PARP Buffer (Trevigen: 4671-096-02) with 5 ul of 1×PARP cocktail, which is a mixture of 10×PARP Cocktail (Trevigen: 4671-096-03), 10× Activate DNA (Trevigen: 4671-096-06) and 20×PARP Buffer (as above). The reaction was incubated at room temperature for 60 minutes to allow histones on the coated plate to become PARylated. The wells were then washed with PBS/0.1% Triton X100. PARP1 activity was then detected by measuring the extent of PARylation. Firstly, 10 ul of Streptavidin-HRP (Trevigen: 4800-30-06), diluted 1 in 250 in 1×PARG Assay Buffer (Trevigen: 4680-096-02), was added to each well and incubated at room temperature for 60 minutes. Secondly, following another wash with PBS/0.1% Triton X100, Peroxy Glow Reagents A and B (Trevigen: 4675-096-01 and 4675-096-02) were mixed in equal quantities immediately before use and 100 ul was added to each well. Luminescence signal was then measured immediately.
# [4] = target: PARG in HeLa cell line (Homo sapiens (Human), UniProt Q86W56); experiment: PARG cell assay (nuclear PAR chains after MMS, immunofluorescence); assay type: cell-based; conditions: HeLa cells, MMS 50 μg/mL; read-out: PARG Cell IC50 Geomean
# Sequence of PARG in HeLa cell line (Q86W56 whole entry): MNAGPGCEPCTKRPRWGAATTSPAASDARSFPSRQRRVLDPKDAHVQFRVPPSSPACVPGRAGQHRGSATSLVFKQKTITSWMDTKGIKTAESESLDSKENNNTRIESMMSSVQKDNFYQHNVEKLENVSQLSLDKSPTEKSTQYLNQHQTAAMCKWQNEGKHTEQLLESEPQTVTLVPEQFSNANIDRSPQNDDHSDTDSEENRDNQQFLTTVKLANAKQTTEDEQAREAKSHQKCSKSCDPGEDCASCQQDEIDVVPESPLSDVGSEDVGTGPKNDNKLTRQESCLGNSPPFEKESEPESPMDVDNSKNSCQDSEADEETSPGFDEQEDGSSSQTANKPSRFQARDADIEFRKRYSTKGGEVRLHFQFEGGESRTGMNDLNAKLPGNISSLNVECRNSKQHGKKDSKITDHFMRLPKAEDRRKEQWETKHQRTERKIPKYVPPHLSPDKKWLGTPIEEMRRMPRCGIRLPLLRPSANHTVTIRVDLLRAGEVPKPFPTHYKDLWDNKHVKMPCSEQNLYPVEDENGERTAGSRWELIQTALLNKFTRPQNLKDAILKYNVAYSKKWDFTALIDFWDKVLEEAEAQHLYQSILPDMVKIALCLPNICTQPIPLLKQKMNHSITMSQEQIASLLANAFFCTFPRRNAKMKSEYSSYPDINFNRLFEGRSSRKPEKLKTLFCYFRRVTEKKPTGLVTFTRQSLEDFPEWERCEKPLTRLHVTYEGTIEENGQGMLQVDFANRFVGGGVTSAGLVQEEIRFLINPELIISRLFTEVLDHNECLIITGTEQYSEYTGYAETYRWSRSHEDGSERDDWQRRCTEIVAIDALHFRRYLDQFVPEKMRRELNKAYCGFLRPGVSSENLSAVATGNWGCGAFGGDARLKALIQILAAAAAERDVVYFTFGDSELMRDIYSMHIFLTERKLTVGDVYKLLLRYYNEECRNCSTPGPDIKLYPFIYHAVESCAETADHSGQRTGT
# Method in brief: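 HeLa cells pre-dosed 1 h with compound (10-point dose response), then MMS 50 μg/mL for a further hour at 37 °C. Fixed cells immunostained with anti-PAR antibody plus Alexa Fluor 488 secondary and Hoechst. High-content imaging quantified nuclear PAR fluorescence intensity; inhibition maintains PAR chains.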
# Sequence of Human Full Length PARG (Q86W56 whole entry): as above
EC50 [1] [µM],IC50 [2] [µM],IC50 [3] [µM],IC50 [4] [µM],Compound
4.28,> 150,> 150,,"CC1(NS(=O)(=O)c2ccc3c(c2)N(C(=O)CN2CCOC2=O)CC3)CC1 [Example 14, N-(1-Methylcyclopropyl)-1-[2-(2-oxooxazolidin-3-yl)acetyl]indoline-6-sulfonamide]"
0.636,> 100,> 150,0.107,Cc1nnc(-n2c(=O)n(Cc3ccc(F)cc3)c3ccc(S(=O)(=O)NC4(C)CC4)cc32)s1 [Example 73]
0.652,> 100,> 150,,Cn1c(=O)n(-c2nnc(C(F)F)s2)c2cc(S(=O)(=O)NC3(C)CC3)ccc21 [Example 79]
0.155,> 100,> 150,0.193,Cc1nnc(-n2c(=O)n(CC3CC3)c3ccc(S(=O)(=O)NC4(C)CC4)cc32)s1 [Example 82]
0.151,> 100,> 150,0.127,Cc1ncc(Cn2c(=O)n(-c3nnc(C)s3)c3cc(S(=O)(=O)NC4(C)CC4)ccc32)s1 [Example 83]
0.068,76.7,> 150,0.109,Cc1nnc(-n2c(=O)n(Cc3sc(C)nc3C)c3ccc(S(=O)(=O)NC4(C)CC4)cc32)s1 [Example 87]
0.053,> 100,> 150,0.038,Cc1nc(C)c(Cn2c(=O)n(-c3nnc(C(F)F)s3)c3cc(S(=O)(=O)NC4(C)CC4)ccc32)s1 [Example 88]
0.04,> 100,> 150,0.063,Cc1nc(C)c(Cn2c(=O)n(-c3ncns3)c3cc(S(=O)(=O)NC4(C)CC4)ccc32)s1 [Example 90]
0.671,> 150,> 150,,Cc1cc(Cc2nc3ccc(S(=O)(=O)NC4(C)CC4)cc3n2-c2nnc(C)s2)on1 [Example 118]
1.03,> 150,> 150,,Cc1nnc(-n2cnc3ccc(S(=O)(=O)NC4(C)CC4)cc32)s1 [Example 119]
0.371,> 16.7,> 150,0.251,"Cc1nnc(-n2cc(Cc3sc(C)nc3C)c3ccc(S(=O)(=O)NC4(C)CC4)cc32)s1 [Example 129, 3-[(2,4-Dimethylthiazol-5-yl)methyl]-N-(1-methylcyclopropyl)-1-(5-methyl-1,3,4-thiadiazol-2-yl)indole-6-sulfonamide]"
0.134,> 150,> 150,0.0466,"CC1(NS(=O)(=O)c2ccc3c(C(=O)C4CC4)cn(-c4nnc(C(F)F)s4)c3c2)CC1 [Example 145, 3-(Cyclopropanecarbonyl)-1-[5-(difluoromethyl)-1,3,4-thiadiazol-2-yl]-N-(1-methylcyclopropyl)indole-6-sulfonamide]"
1.19,> 16.7,> 150,,"Cc1nnc(-n2nc(Cc3ccc(F)cc3)c3ccc(S(=O)(=O)NC4(C)CC4)cc32)s1 [Example 146, 3-[(4-Fluorophenyl)methyl]-N-(1-methylcyclopropyl)-1-(5-methyl-1,3,4-thiadiazol-2-yl)indazole-6-sulfonamide]"
0.091,> 50,> 150,0.041,"Cn1c(=O)n(-c2nnc(C(F)F)s2)c2cc(S(=O)(=O)NC3(CF)CC3)c(F)cc21 [Example 174, 3-[5-(difluoromethyl)-1,3,4-thiadiazol-2-yl]-6-fluoro-N-[1-(fluoromethyl)cyclopropyl]-1-methyl-2-oxo-benzimidazole-5-sulfonamide]"
0.112,> 150,,0.126,"CCn1c(=O)n(-c2nnc(C(F)F)o2)c2cc(S(=O)(=O)NC3(CF)CC3)c(F)cc21 [Example 200, 3-[5-(Difluoromethyl)-1,3,4-oxadiazol-2-yl]-1-ethyl-6-fluoro-N-[1-(fluoromethyl)cyclopropyl]-2-oxo-benzimidazole-5-sulfonamide]"
0.054,> 150,> 150,0.029,"CCn1c(=O)n(-c2nnc(C(F)F)s2)c2cc(S(=O)(=O)NC3(CF)CC3)c(F)cc21 [Example 208, 3-[5-(Difluoromethyl)-1,3,4-thiadiazol-2-yl]-1-ethyl-6-fluoro-N-[1-(fluoromethyl)cyclopropyl]-2-oxo-benzimidazole-5-sulfonamide]"
0.401,> 150,,0.135,"CC1(NS(=O)(=O)c2cc3c(cc2F)n(CCF)c(=O)n3-c2nnc(C(F)F)o2)CC1 [Example 211, 3-[5-(Difluoromethyl)-1,3,4-oxadiazol-2-yl]-6-fluoro-1-(2-fluoroethyl)-N-(1-methylcyclopropyl)-2-oxo-benzimidazole-5-sulfonamide]"
0.129,> 150,,0.11,"O=c1n(CCF)c2cc(F)c(S(=O)(=O)NC3(CF)CC3)cc2n1-c1nnc(C(F)F)o1 [Example 212, 3-[5-(Difluoromethyl)-1,3,4-oxadiazol-2-yl]-6-fluoro-1-(2-fluoroethyl)-N-[1-(fluoromethyl)cyclopropyl]-2-oxo-benzimidazole-5-sulfonamide]"
0.029,> 150,,0.016,"C#CCn1c(=O)n(-c2nnc(C(F)F)s2)c2cc(S(=O)(=O)NC3(CF)CC3)c(F)cc21 [Example 213, 3-[5-(Difluoromethyl)-1,3,4-thiadiazol-2-yl]-6-fluoro-N-[1-(fluoromethyl)cyclopropyl]-2-oxo-1-prop-2-ynyl-benzimidazole-5-sulfonamide]"
0.051,> 150,,0.033,"O=c1n(CCF)c2cc(F)c(S(=O)(=O)NC3(CF)CC3)cc2n1-c1nnc(C(F)F)s1 [Example 216, 3-[5-(Difluoromethyl)-1,3,4-thiadiazol-2-yl]-6-fluoro-1-(2-fluoroethyl)-N-[1-(fluoromethyl)cyclopropyl]-2-oxo-benzimidazole-5-sulfonamide]"
